Molecules are shown by their SMILES. Like-named read-outs stand apart in the source and are kept apart here.

Results on 20 compounds are retold here after publication PMC6995558, “Biological Evaluation, Molecular Docking, and SAR Studies of Novel 2-(2,4-Dihydroxyphenyl)-1H- Benzimidazole Analogues” (Biomolecules, 2019).

The target in data set [1] is T1, butyrylcholinesterase (BuChE, E.C. 3.1.1.8, from equine serum) (Equus caballus, UniProt P81908).
T1 construct: butyrylcholinesterase (BuChE, E.C. 3.1.1.8, from equine serum); purchased Sigma-Aldrich (Steinheim, Germany); host or cells: equine serum (natural source)
T1 sequence (P81908 whole entry): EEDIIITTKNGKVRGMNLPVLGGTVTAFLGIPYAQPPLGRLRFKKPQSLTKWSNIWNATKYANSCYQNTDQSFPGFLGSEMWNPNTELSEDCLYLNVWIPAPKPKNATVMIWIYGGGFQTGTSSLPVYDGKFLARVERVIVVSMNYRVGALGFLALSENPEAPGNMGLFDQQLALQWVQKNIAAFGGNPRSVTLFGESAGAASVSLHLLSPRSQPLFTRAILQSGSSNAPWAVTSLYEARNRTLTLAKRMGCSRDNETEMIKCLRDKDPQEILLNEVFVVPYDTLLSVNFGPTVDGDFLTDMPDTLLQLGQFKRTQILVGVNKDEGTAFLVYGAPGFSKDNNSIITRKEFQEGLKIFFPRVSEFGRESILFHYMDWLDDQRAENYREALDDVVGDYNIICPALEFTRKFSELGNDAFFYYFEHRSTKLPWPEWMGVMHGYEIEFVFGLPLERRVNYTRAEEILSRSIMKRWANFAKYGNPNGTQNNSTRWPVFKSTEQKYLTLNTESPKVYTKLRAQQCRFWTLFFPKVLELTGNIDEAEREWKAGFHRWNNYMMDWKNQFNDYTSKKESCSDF
Briefly: biochemical. The method, then: (§1) The details were described previously.
(§2) Their potency was determined using the modified Ellman’s method and expressed as the half of maximal inhibitory concentration, IC50 [34].

Data set [2] in a line: RP-18 HPLC chromatography lipophilicity estimation. It counts as physicochemical. Particulars: for −S (slope): methanol/acetate buffer pH 4.0; for log kw (intercept): methanol/acetate buffer pH 4.0, extrapolated to pure water. How it is done: The Eurosil Bioselect C18 (5 μm, 300 × 4.6 mm) column was used as the stationary phase. The mobile phase consisted of different volume mixtures of methanol and 20 mM acetate buffer as the aqueous phase to give pH 4.0. The organic modifier concentration ranged from 0.30 to 0.75, depending on the structure of the compound at 0.05 (0.1) intervals. The flow rate was 0.5 cm^3·min^−1 at room temperature. Measurements were made at 292 nm. The retention time of an unretained solute (t0) was determined by the injection of a small amount of acetone dissolved in water. […] This is described by the Soczewiński–Wachtmeister dependence: log k = log kw + S (% organic modifier)(1) in which log kw is the retention factor of a solute with pure water as the mobile phase (intercept) and S is the regression curve (slope). The log k values were calculated as log k = log (tR − t0)/t0, where tR is the retention time of a solute and t0 is the retention time of an unretained solute.
To find the structure–activity relationships, some quantities of the compounds were estimated (Table 5). They included the lipophilicity parameter log kw obtained by RP-HPLC and calculated in silico log P, the topological polar surface area (tPSA), and the molar refractivity (MR) (Table 5). The log kw and S parameters obtained by the extrapolation technique are commonly used as lipophilicity descriptors.

Data set [3] addresses T2, Acetylcholinesterase (AChE, E.C. 3.1.1.7, from human erythrocytes) (Homo sapiens, UniProt P22303).
T2 construct: Acetylcholinesterase (AChE, E.C. 3.1.1.7, from human erythrocytes); purchased Sigma-Aldrich (Steinheim, Germany); host or cells: human erythrocytes (natural source)
In words: biochemical. The following applies: for Selectivity for AChE: IC50(BuChE)/IC50(AChE); for IC50: means ± SD of three independent experiments. It is filed as biochemical. The method, then:
as §1, §2

Data set [4] relates to AChE. Particulars: Figure 1; cited from earlier work.
Data set [5] in a line: In vitro antioxidant activity assay (DPPH radical scavenging). The following applies: DPPH 100 μM in methanol, 37 °C, 30 min; means ± SD of three experiments; read-out: IC50(DPPH) radical scavenging effect. How it is done: Antioxidant activity of each compound and standards (rutin) was assessed based on the radical scavenging effect of stable DPPH free radical. An amount of 10 μL of each tested compound or standard series of different concentrations (from 0.0 to 100 µM) was added to 9 mL of methanol solution of 2,2-diphenyl-1-picrylhydrazyl (DPPH) (100 μM). After incubation at 37 °C for 30 min, decrease in the absorbance of each solution was measured at 520 nm. The absorbance of the blank sample containing the same amount of DMSO and DPPH solution was also prepared and measured. All experiments were conducted in triplicate. The scavenging potential was compared with a solvent control (0% radical scavenging) and the standard compound. Radical scavenging activity (%AA) was calculated by the following formula: (%AA) = [(A0 − A1)/A0] × 100%(3) in which (A0) is the absorbance of the blank sample and (A1) is the absorbance of the tested compound (t = 30 min).
Reactive oxygen species are a causal factor in the process of aging and the cumulative damage has been associated with AD [45]. In this study, the DPPH radical scavenging activity of the newly synthesized compounds was estimated using the Brand-Williams method.
A general note: Loss of DPPH colour is used to gauge radical scavenging.

Data set [6] has as its target T3, Amyloid β-peptide (1–42) (Aβ42) (Homo sapiens, UniProt P05067).
T3 construct: Amyloid β-peptide, (1–42) (Aβ42), was purchased from Aldrich; purchased Aldrich
Briefly: biochemical. Particulars: ThT fluorescence, 24 h at 37 °C; means ± SD of three experiments; read-out: IC50(Aβ(1–42)) self-induced aggregation. The method, then: Amyloid β-peptide, (1–42) (Aβ42), was purchased from Aldrich. Aβ42 was diluted in the phosphate buffer (pH 8.0) to obtain a 125.8 µM solution. The compounds under study were first dissolved in a small amount of methanol, and then further diluted in the phosphate buffer to the final concentration of 5–160 μM. To study the Aβ42 aggregation inhibition, the fluorescence emission of thioflavin T (ThT) was followed with curcumin as the reference compound [35, 36]. At first, the Aβ42 (10 μL) samples and the tested compounds (10 μL) were diluted with the phosphate buffer (60 μL) and then they were incubated for 24 h at 37 °C without stirring. As for the control, a sample of the peptide was incubated without the inhibitor. The tests were carried out in black, flat-bottom, 96-well plates. Then 20 µL of 2.5 µM ThT in 50 mM glycine–NaOH (pH 8.5) was added and incubated for 5 min. Fluorescence was monitored with the excitation at 446 nm and the emission at 490 nm. A time scan of fluorescence was performed and the intensity values reached the plateau (300 s). […]. The reported values were obtained as the mean ± SD of triplicate of three independent experiments.
Nowadays, the amyloid hypothesis has become the dominating paradigm for understanding AD [44]. Aβ(1–42) is the most amyloidogenic Aβ fragment found in the AD plaques. […].

[7] abbreviates: means ± SD of three experiments, read-out: BuChE IC50.

T2 sequence (P22303 32-617 isoform P22303-2 limits assumed): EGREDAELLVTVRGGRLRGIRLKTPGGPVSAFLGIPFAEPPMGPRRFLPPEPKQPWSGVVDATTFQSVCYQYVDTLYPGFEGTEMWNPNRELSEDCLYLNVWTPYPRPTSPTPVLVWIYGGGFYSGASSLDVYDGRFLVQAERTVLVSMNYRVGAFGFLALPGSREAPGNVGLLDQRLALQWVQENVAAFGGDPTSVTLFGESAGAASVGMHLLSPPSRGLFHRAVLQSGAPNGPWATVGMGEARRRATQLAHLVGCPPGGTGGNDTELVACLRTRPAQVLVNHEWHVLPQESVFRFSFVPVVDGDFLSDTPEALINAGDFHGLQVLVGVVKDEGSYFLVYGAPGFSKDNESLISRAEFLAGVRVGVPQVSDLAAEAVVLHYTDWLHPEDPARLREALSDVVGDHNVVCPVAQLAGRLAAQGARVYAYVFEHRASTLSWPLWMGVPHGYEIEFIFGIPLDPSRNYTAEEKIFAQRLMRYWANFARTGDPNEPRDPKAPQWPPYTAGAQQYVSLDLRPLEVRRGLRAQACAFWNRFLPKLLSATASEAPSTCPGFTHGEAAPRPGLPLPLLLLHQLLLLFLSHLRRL
T3 sequence (P05067 672-713 limits assumed): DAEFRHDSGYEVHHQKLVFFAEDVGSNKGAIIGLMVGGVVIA

What is called IC50 is the midpoint of a concentration-inhibition curve. `Cc1c(O)ccc(-c2nc3ccc(C(F)(F)F)cc3[nH]2)c1O` [Compound 3, 4-[6-(Trifluoromethyl)-1H-benzimidazol-2-yl]-2-methylbenzene-1,3-diol]: the IC50 in data set [1] (setting [7]) came to 14.02 ± 0.111 µM. In addition, in data set [2], the “−S (slope)” value was 6.299 and the “log kw (intercept)” value is on record as 5.720. Also, in data set [3], the “Selectivity for AChE” value is 143.1 and half-maximal inhibition (IC50) required 0.098 ± 0.005 µM.
Taken in the same sequence, the figures for `O=[N+]([O-])c1ccc2nc(-c3ccc(O)cc3O)[nH]c2c1` [Compound 13, 4-(6-Nitro-1H-benzimidazol-2-yl)benzene-1,3-diol] were 106.6 ± 0.201 µM, 4.655, 2.475, 71.7 and 1.49 ± 0.118 µM.
Regarding `CCc1cc(-c2nc3cc(C(F)(F)F)cc(Cl)c3[nH]2)c(O)cc1O` [Compound 4, 4-(7-Chloro-5-(trifluoromethyl)-1H-benzimidazol-2-yl)-6-ethylbenzene-1,3-diol], the IC50 in data set [1] (setting [7]) was determined as 46.03 ± 0.104 µM. Besides, in data set [2], the “−S (slope)” value was 4.635 and the “log kw (intercept)” value is recorded as 4.237. Also, in data set [3], the “Selectivity for AChE with respect to BuChE (in words)” value is given as “highly selective”, the “Selectivity for AChE” value is on record as 390.0 and 0.118 ± 0.009 µM corresponded to half-maximal inhibition (IC50).
Consider `COc1ccc2nc(-c3ccc(O)c(O)c3O)[nH]c2c1` [Compound 7, 4-(6-Methoxy-1H-benzimidazol-2-yl)benzene-1,2,3-triol], for which, in data set [1] (setting [7]), the IC50 is more than 500 µM. In data set [2], the “−S (slope)” value was 3.870 and the “log kw (intercept)” value was 3.589. In data set [3], the “Activity against AChE (in words)” value is “inactive” and the IC50 is more than 500 µM.
As for `O=C1c2ccccc2C(=O)N1CCCn1c[n+](Cc2cccc3ccccc23)c2ccccc21` [d], in data set [4], the IC50 is 0.056 µM.
In the case of `CCOC(=O)c1ccc2[nH]c(-c3c(O)cc(O)cc3O)nc2c1` [Compound 10, Ethyl 2-(2,4,6-trihydroxyphenyl)-1H-benzimidazole-5-carboxylate], the IC50 in data set [1] (setting [7]) is more than 500 µM. For the same compound, in data set [2], the “−S (slope)” value is 3.237 and the “log kw (intercept)” value is 2.088. Moreover, in data set [3], the “Activity against AChE (in words)” value is “inactive” and the IC50 is more than 500 µM.
For `Oc1cc(O)c(-c2nc3cc(Cl)c(Cl)cc3[nH]2)cc1Cl` [Compound 2, 4-(5,6-Dichloro-1H-benzimidazol-2-yl)-6-chlorobenzene-1,3-diol], the IC50 in data set [1] (setting [7]) is 22.69 ± 0.078 µM. In data set [2], the “−S (slope)” value is given as 5.770 and the “log kw (intercept)” value is on record as 5.460. Also, in data set [5], the IC50 was determined as 0.213 ± 0.08 µM. Moreover, in data set [3], the “Selectivity for AChE” value came to 41.9 and the IC50 came out at 0.541 ± 0.036 µM.
For the compound `CN1c2c(nn(-c3ccc(-c4nc5ccccc5[nH]4)cc3)c2-c2ccccc2)-c2ccccc2S1(=O)=O` [compound f], the IC50 in data set [4] was 0.011 µM.
`Clc1ccc2[nH]c(-c3ccc(OCCN4CCCCC4)cc3)nc2c1` [compound a]: in data set [4], the IC50 was 0.13 µM.
Regarding `CCOC(=O)c1ccc2[nH]c(-c3cc(CC)c(O)cc3O)nc2c1` [Compound 9, Ethyl 2-(5-ethyl-2,4-dihydroxyphenyl)-1H-benzimidazole-5-carboxylate], in data set [1] (setting [7]), the IC50 was 43.86 ± 0.381 µM. In data set [2], the “−S (slope)” value is recorded as 4.160 and the “log kw (intercept)” value was 3.067. In data set [3], the “Selectivity for AChE” value is 45.6 and the IC50 turned out to be 0.962 ± 0.023 µM.
Consider `COc1ccc2nc(-c3cc(Cl)c(O)cc3O)[nH]c2c1` [Compound 6, 4-(6-Methoxy-1H-benzimidazol-2-yl)-6-chlorobenzene-1,3-diol], for which, in data set [1] (setting [7]), the half-maximal inhibitory concentration (IC50) turned out to be 18.71 ± 0.173 µM. For the same compound, the IC50 in data set [6] came to 27 ± 2.29 µM. Further, in data set [2], the “−S (slope)” value was 5.390 and the “log kw (intercept)” value is given as 4.808. Besides, in data set [5], the IC50 came out at 0.362 ± 0.01 µM. Besides, in data set [3], the “Selectivity for AChE with respect to BuChE (in words)” value is given as “highly selective”, the “Selectivity for AChE” value came to 203.4 and the IC50 stood at 0.092 ± 0.002 µM.
In the case of `CN(C)C(=O)Oc1cccc([N+](C)(C)C)c1` [neostigmine, reference compound], in data set [1], the IC50 was 0.068 ± 0.005 µM.
Take `CCc1cc(-c2nc3ccc(C#N)cc3[nH]2)c(O)cc1O` [Compound 12, 2-(5-Ethyl-2,4-dihydroxyphenyl)-1H-benzimidazole-6-carbonitrile]: the figures for the IC50 in data set [1] (setting [7]), in data set [5] and in data set [3] were more than 500 µM, 0.209 ± 0.02 µM and more than 500 µM, respectively. The “−S (slope)” value in data set [2] was 4.854. In addition, the “log kw (intercept)” value in data set [2] is on record as 3.360.
`C[C@@H]1O[C@@H](OC[C@H]2O[C@@H](Oc3c(-c4ccc(O)c(O)c4)oc4cc(O)cc(O)c4c3=O)[C@H](O)[C@@H](O)[C@@H]2O)[C@H](O)[C@H](O)[C@H]1O` [rutin, reference compound]: the IC50 in data set [5] was found to be 0.087 ± 0.04 µM.
For `Cc1c(O)ccc(-c2nc3ccc([N+](=O)[O-])cc3[nH]2)c1O` [Compound 14, 2-Methyl-4-(6-nitro-1H-benzimidazol-2-yl)benzene-1,3-diol], in data set [1] (setting [7]), the IC50 came to 88.36 ± 0.155 µM. Further, in data set [2], the “−S (slope)” value is 4.596 and the “log kw (intercept)” value is reported as 2.674. Also, in data set [3], the “Selectivity for AChE” value is recorded as 88.1 and half-maximal inhibition (IC50) required 1 ± 0.196 µM.
On to `C=Cc1ccc(C[n+]2cn(C)c3ccccc32)cc1` [e], for which the IC50 in data set [4] is 0.045 µM.
As for `CCOC(=O)c1ccc2[nH]c(-c3ccc(O)c(C)c3O)nc2c1` [Compound 8, Ethyl 2-(2,4-dihydroxy-3-methylphenyl)-1H-benzimidazole-5-carboxylate], the figures for the IC50 in data set [1] (setting [7]), in data set [5] and in data set [3] were 25.35 ± 0.232 µM, 0.125 ± 0.06 µM and 0.184 ± 0.022 µM, respectively. The “−S (slope)” value in data set [2] is recorded as 4.097. Moreover, the “log kw (intercept)” value in data set [2] was 2.566. For the same compound, the “Selectivity for AChE” value in data set [3] came to 137.8.
Regarding `Cc1c(O)ccc(-c2nc3ccc(C#N)cc3[nH]2)c1O` [Compound 11, 2-(2,4-Dihydroxy-3-methylphenyl)-1H-benzimidazole-6-carbonitrile], the IC50 in data set [1] (setting [7]) was more than 500 µM. In data set [2], the “−S (slope)” value is 3.867 and the “log kw (intercept)” value is 3.590. This compound also gave an IC50 in data set [3] of more than 500 µM.
In the case of `CCN(CC)Cc1cc(-c2nc3cc([N+](=O)[O-])ccc3[nH]2)ccc1O` [compound b], the IC50 in data set [4] was 0.93 µM.
Take `Oc1ccc(-c2nc3ccccc3[nH]2)c(O)c1` [bib-1,3-diol, 4-(1H-benzimidazol-2-yl)benzene-1,3-diol, reference compound]: the IC50 in data set [1] (setting [7]) was found to be 31.02 ± 0.133 µM. Further, in data set [2], the “−S (slope)” value was 2.979 and the “log kw (intercept)” value is on record as 1.732. In data set [3], the “Selectivity for AChE” value is recorded as 109.2 and the IC50 amounted to 0.284 ± 0.014 µM.
